Source: patent publication US7153844B2, “Estrogen-linked platinum (II) complexes as anticancer agents” (priority 2002, dated 2006)

Columns and labels:
Format in all cases: cell-based, human
[1] = tested on: ZR-75-1; assay: Cell proliferation with the MTT assay; settings: read-out: IC50 (Inhibitory concentration 50%), ZR-75-1, breast, ER+, NR = IC50 not reach at the concentrations tested
Description: (§1) Cell Proliferation with the MTT Assay (Uterine, Ovarian and Breast Cancer Cell Lines)
(§2) Several human uterine, ovarian and breast cancer cell lines were used to evaluate the antitumor activities of the new estrogen-linked platinum (II) complexes. The cytotoxicity of the platinum (II) complexes was done along with cisplatin as the control on both ER+ and ER— human uterine, ovarian and breast carcinomas. Cell proliferation was done with the MTT assay as described by J. Carmichael et al. (Cancer Res. 47, 943–946 (1987) see also C. H. J. Ford et al., Cancer Chemother. Pharmacol. 24, 295–301 (1986)). The MTT assay is based on the ability of viable cells to reduce a soluble colorless tetrazolium salt, 3-(4,5-dimethylthiazol-2-yl)-2,5-diphenyltetrazolium bromide (MTT), into an insoluble blue formazan derivative.

[2] = tested on: KLE; assay: Cell proliferation with the MTT assay; settings: read-out: IC50 (Inhibitory concentration 50%), uterus, ER−, NR = IC50 not reach at the concentrations tested
Description: as §1, §2

[3] = tested on: HS578T; assay: Cell proliferation with the MTT assay; settings: read-out: IC50 (Inhibitory concentration 50%), breast, ER−, NR = IC50 not reach at the concentrations tested
Description: as §1, §2

[4] = tested on: A2780wt; assay: Cell proliferation with the MTT assay; settings: read-out: IC50 (Inhibitory concentration 50%), ovary, ER−, NR = IC50 not reach at the concentrations tested
Description: as §1, §2

[5] = tested on: RL-95-2; assay: Cell proliferation with the MTT assay; settings: read-out: IC50 (Inhibitory concentration 50%), RL-95-2, uterus, ER+, NR = IC50 not reach at the concentrations tested
Description: as §1, §2

[6] = tested on: SKOV-3; assay: Cell proliferation with the MTT assay; settings: read-out: IC50 (Inhibitory concentration 50%), SKOV-3, ovary, ER+, NR = IC50 not reach at the concentrations tested
Description: as §1, §2

[7] = tested on: HeLa; assay: Cell proliferation with the MTT assay; settings: read-out: IC50 (Inhibitory concentration 50%), uterus, ER−, NR = IC50 not reach at the concentrations tested
Description: as §1, §2

[8] = tested on: Ishikawa; assay: Cell proliferation with the MTT assay; settings: read-out: IC50 (Inhibitory concentration 50%), uterus, ER+, NR = IC50 not reach at the concentrations tested
Description: as §1, §2

[9] = tested on: MCF-7; assay: Cell proliferation with the MTT assay; settings: read-out: IC50 (Inhibitory concentration 50%), MCF-7, breast, ER+, NR = IC50 not reach at the concentrations tested
Description: as §1, §2

[10] = tested on: OVCAR-3; assay: Cell proliferation with the MTT assay; settings: read-out: IC50 (Inhibitory concentration 50%), OVCAR-3, ovary, ER+, NR = IC50 not reach at the concentrations tested
Description: as §1, §2

[11] = tested on: HEC-1A; assay: Cell proliferation with the MTT assay; settings: read-out: IC50 (Inhibitory concentration 50%), uterus, ER−, NR = IC50 not reach at the concentrations tested
Description: as §1, §2

[12] = tested on: A2780cp; assay: Cell proliferation with the MTT assay; settings: read-out: IC50 (Inhibitory concentration 50%), ovary, ER−, NR = IC50 not reach at the concentrations tested
Description: as §1, §2

[13] = tested on: MDA-MB-231; assay: Cell proliferation with the MTT assay; settings: read-out: IC50 (Inhibitory concentration 50%), MDA-MB-231, breast, ER−, NR = IC50 not reach at the concentrations tested
Description: as §1, §2

[14] = tested on: MCF-7; assay: Cell proliferation with the SRB assay; settings: read-out: IC50 (Inhibitory concentration 50%), MCF-7 (ER+) breast carcinoma
Description: (§3) Cell Proliferation with the SRB Assay (Breast Cancer Cell Lines)
(§4) Two human breast tumor cell lines were used to evaluate the antitumor activities of the new estrogen-linked platinum (II) complexes. […] Cell proliferation was done with the sulforhodamine B (SRB) assay as described by Alley, M. C. et al. (Cancer Research. no 48, 589–601 (1988)) and Boyd, M. R. & Paull, K. D. (Drug Development Research. 34, 91–109, (1995)).

[15] = tested on: MDA-MB-231; assay: Cell proliferation with the SRB assay; settings: read-out: IC50 (Inhibitory concentration 50%), MDA-MB-231 (ER−) breast carcinoma
Description: as §3, §4

| Compound | IC50 [1] [µM] | IC50 [2] [µM] | IC50 [3] [µM] | IC50 [4] [µM] | IC50 [5] [µM] | IC50 [6] [µM] | IC50 [7] [µM] | IC50 [8] [µM] | IC50 [9] [µM] | IC50 [10] [µM] | IC50 [11] [µM] | IC50 [12] [µM] | IC50 [13] [µM] | IC50 [14] [µM] | IC50 [15] [µM] |
| --- | --- | --- | --- | --- | --- | --- | --- | --- | --- | --- | --- | --- | --- | --- | --- |
| 16β-hydroxymethyl-16α-[8′-(2-pyridin-2-yl-ethylamino)-3′,6′-dioxaoctyl]-1,3,5(10)-estratrien-3,17β-diol dichloroplatinum (II) [derivative 23] | 14.6 | 17.5 | 16.2 | 7.9 | 6.25 | 32.5 | 13.8 | 2.5 | 12.7 | 33.8 | 20.4 | 16 | 18.8 | – | – |
| N.N.[Cl][Pt][Cl] [Cisplatin, cis-diamminedichloroplatinum (II), reference compound] | – | 24.3 ± 6.3 | – | – | 14.1 ± 0.5 | – | – | 3.7 ± 0.9 | – | – | 20.8 ± 4.7 | – | – | 16.1 | 12.8 |
| C[C@]12CC[C@@H]3c4ccc(O)cc4CC[C@H]3[C@@H]1C[C@H](CCCCCCCCCCCNCc1ccccn1)[C@@H]2O.[Cl][Pt][Cl] [derivative 12 (∘ = 1), 16β-[11′-(2″-picolylamino)undecanyl]-1,3,5(10)-estratrien-3,17β-diol dichloroplatinate (II)] | – | 6 | – | – | 7 | – | – | 28 | – | – | 13 | – | – | 5.9 | 4.1 |
| C[C@]12CCC3c4ccc(O)cc4CCC3C1C[C@H](CCCCCCCCCCCNCCc1ccccn1)[C@@H]2O.[Cl][Pt][Cl] (stereo partly drawn) [derivative 12 (∘ = 2), 16β-[11′-(2″-pyridylethylamino)undecanyl]-1,3,5(10)-estratrien-3,17β-diol dichloroplatinate (II)] | – | 1.75 | – | – | 1 | – | – | 0.25 | – | – | 3.75 | – | – | < 0.78 | < 0.78 |
| C[C@]12CCC3c4ccc(O)cc4CCC3C1C[C@@](CO)(CCCCNCc1ccccn1)[C@@H]2O.[Cl][Pt][Cl] (stereo partly drawn) [derivative 14 (∘ = 1, p = 2), 16β-hydroxymethyl-16α-[4-(1-pyridin-2-yl-methylamino)-butyl]-1,3,5(10)-estratrien-3,17β-diol dichloroplatinum (II)] | > 40 | > 40 | > 40 | 33.7 | 40 | > 40 | > 40 | 36 | > 40 | > 40 | > 40 | > 40 | > 40 | – | – |
| C[C@]12CCC3c4ccc(O)cc4CCC3C1C[C@@](CO)(CCCCCCNCc1ccccn1)[C@@H]2O.[Cl][Pt][Cl] (stereo partly drawn) [derivative 14 (∘ = 1, p = 4), 16β-hydroxymethyl-16α-[6-(1-pyridin-2-yl-methylamino)-hexyl]-1,3,5(10)-estratrien-3,17β-diol dichloroplatinum (II)] | > 40 | 36.2 | 36.2 | 23.5 | 16 | > 40 | 36.2 | > 40 | > 40 | > 40 | 19.5 | > 40 | > 40 | – | – |
| C[C@]12CCC3c4ccc(O)cc4CCC3C1C[C@@](CO)(CCCCCCCCNCc1ccccn1)[C@@H]2O.[Cl][Pt][Cl] (stereo partly drawn) [derivative 14 (∘ = 1, p = 6), 16β-hydroxymethyl-16α-[8-(1-pyridin-2-yl-methylamino)-octyl]-1,3,5(10)-estratrien-3,17β-diol dichloroplatinum (II)] | 11.2 | 19.5 | 17.5 | 6.3 | 7.8 | 35 | 34.4 | 19.5 | 20 | 18.8 | 9.2 | 11 | 40 | – | – |
| C[C@]12CCC3c4ccc(O)cc4CCC3C1C[C@@](CO)(CCCCCCCCCCNCc1ccccn1)[C@@H]2O.[Cl][Pt][Cl] (stereo partly drawn) [derivative 14 (∘ = 1, p = 8), 16β-hydroxymethyl-16α-[10-(1-pyridin-2-yl-methylamino)-decyl]-1,3,5(10)-estratrien-3,17β-diol dichloroplatinum (II)] | 27.6 | 9.5 | 34.9 | 10 | 9.5 | > 40 | 32.2 | > 40 | 17.7 | 40 | 15.6 | 16.6 | 15.3 | – | – |
| C[C@]12CCC3c4ccc(O)cc4CCC3C1C[C@@](CO)(CCCCNCCc1ccccn1)[C@@H]2O.[Cl][Pt][Cl] (stereo partly drawn) [derivative 14 (∘ = 2, p = 2), 16β-hydroxymethyl-16α-[4-(2-pyridin-2-yl-ethylamino)-butyl]-1,3,5(10)-estratrien-3,17β-diol dichloroplatinum (II)] | 26.3 | > 40 | 33 | 19.5 | 10 | 35.6 | 34.5 | 16 | 28.5 | 31.2 | 26.3 | 30.5 | > 40 | – | – |
| C[C@]12CCC3c4ccc(O)cc4CCC3C1C[C@@](CO)(CCCCCCNCCc1ccccn1)[C@@H]2O.[Cl][Pt][Cl] (stereo partly drawn) [derivative 14 (∘ = 2, p = 4), 16β-hydroxymethyl-16α-[6-(2-pyridin-2-yl-ethylamino)-hexyl]-1,3,5(10)-estratrien-3,17β-diol dichloroplatinum (II)] | 11.4 | 8.9 | 7.25 | 5 | 6.4 | 12.5 | 8.9 | 20 | 7 | 12.5 | 6.4 | 7 | > 40 | – | – |
| C[C@]12CCC3c4ccc(O)cc4CCC3C1C[C@@](CO)(CCCCCCCCNCCc1ccccn1)[C@@H]2O.[Cl][Pt][Cl] (stereo partly drawn) [derivative 14 (∘ = 2, p = 6), 16β-hydroxymethyl-16α-[8′-(2-pyridin-2-yl-ethylamino)-octyl]-1,3,5(10)-estratrien-3,17β-diol dichloroplatinum (II)] | 4.6 | 2.7 | 4.3 | 3.3 | 0.1 | 4.8 | 4.6 | 8 | 6.4 | 5 | 2.1 | 3.6 | 10.5 | – | – |
| C[C@]12CCC3c4ccc(O)cc4CCC3C1C[C@@](CO)(CCCCCCCCCCNCCc1ccccn1)[C@@H]2O.[Cl][Pt][Cl] (stereo partly drawn) [derivative 14 (∘ = 2, p = 8), 16β-hydroxymethyl-16α-[10-(2-pyridin-2-yl-ethylamino)-decyl]-1,3,5(10)-estratrien-3,17β-diol dichloroplatinum (II)] | 2.5 | 3.7 | 3.3 | 1.65 | 3.1 | 5.8 | 6.8 | 2.2 | 4 | 9.5 | 2.4 | 2 | 4 | – | – |
